From ChEMBL document CHEMBL3785050, “Synthesis, biological evaluation and molecular docking studies of 2-piperazin-1-yl-quinazolines as platelet aggregation inhibitors and ligands of integrin αIIbβ3” (Bioorg Med Chem Lett, 2016)

Experiments:
[1] = Antiplatelet activity in human platelet rich plasma assessed as inhibition of ADP-induced platelet aggregation by Born's method; format: functional
[2] = biological target: Integrin alpha-IIb/beta-3 (Homo sapiens, UniProt P05106+P08514); assay: Inhibition of FITC-labelled fibrinogen binding to integrin alpha2b beta3 receptor in human platelet cells; format: cell-based
Integrin alpha-IIb/beta-3, sequence (P05106 27-788 limits assumed): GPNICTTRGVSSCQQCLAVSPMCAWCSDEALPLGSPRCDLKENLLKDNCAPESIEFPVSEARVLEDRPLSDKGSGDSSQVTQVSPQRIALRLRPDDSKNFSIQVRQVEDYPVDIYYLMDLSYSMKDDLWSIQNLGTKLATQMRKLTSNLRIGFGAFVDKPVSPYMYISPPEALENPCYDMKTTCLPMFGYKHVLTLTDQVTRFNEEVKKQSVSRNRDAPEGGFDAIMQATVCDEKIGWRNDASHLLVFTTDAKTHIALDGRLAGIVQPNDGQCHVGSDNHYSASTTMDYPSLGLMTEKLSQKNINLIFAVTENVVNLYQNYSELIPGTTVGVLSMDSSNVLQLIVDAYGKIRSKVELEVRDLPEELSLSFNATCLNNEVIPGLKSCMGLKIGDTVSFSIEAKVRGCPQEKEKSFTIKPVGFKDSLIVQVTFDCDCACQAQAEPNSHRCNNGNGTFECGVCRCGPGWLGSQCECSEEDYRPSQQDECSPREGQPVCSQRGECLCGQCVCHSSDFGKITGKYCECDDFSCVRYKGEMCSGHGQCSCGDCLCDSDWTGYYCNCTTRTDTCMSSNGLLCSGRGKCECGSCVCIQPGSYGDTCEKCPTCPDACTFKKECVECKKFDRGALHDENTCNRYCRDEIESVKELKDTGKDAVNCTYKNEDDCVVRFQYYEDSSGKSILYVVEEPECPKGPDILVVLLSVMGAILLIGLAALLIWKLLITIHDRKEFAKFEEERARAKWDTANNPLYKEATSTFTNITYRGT
Integrin alpha-IIb/beta-3, sequence (P08514 32-887 limits assumed): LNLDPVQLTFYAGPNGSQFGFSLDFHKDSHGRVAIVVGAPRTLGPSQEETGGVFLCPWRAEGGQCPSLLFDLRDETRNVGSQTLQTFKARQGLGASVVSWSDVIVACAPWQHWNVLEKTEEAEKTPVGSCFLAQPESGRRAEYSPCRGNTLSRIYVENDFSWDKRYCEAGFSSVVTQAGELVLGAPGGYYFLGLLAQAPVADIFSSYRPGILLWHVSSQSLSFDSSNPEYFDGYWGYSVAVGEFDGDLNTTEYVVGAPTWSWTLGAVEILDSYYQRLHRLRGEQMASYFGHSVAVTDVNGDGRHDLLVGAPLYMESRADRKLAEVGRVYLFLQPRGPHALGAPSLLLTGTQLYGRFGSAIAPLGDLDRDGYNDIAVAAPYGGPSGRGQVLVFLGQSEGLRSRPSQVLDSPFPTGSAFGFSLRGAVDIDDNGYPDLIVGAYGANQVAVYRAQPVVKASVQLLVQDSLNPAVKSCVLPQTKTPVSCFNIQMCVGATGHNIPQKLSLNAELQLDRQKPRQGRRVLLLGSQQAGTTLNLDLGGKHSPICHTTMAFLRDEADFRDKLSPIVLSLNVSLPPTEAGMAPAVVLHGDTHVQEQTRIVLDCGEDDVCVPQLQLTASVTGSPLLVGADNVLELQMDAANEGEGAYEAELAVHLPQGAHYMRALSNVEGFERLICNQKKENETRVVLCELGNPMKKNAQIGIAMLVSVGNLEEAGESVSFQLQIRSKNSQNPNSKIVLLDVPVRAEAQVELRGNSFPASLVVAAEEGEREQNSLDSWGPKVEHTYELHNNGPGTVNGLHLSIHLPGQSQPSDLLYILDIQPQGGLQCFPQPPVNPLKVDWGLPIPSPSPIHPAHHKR
Integrin alpha-IIb/beta-3, sequence (P08514 891-1039 limits assumed): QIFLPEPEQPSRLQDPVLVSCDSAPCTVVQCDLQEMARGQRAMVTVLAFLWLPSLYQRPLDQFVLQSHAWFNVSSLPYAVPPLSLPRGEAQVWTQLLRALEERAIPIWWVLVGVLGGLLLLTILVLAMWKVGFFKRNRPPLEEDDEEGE

SMILES	IC50 [1] [nM]	IC50 [2] [nM]
NCCCCC(=O)Nc1ccc2nc(N3CCNCC3)[nH]c(=O)c2c1	1400	–
CCC(=O)Nc1ccc2nc(N3CCNCC3)nc(-c3ccccc3)c2c1	720	–
NCCCCC(=O)Nc1ccc2nc(N3CCNCC3)nc(-c3ccccc3)c2c1	48000	–
NCC[C@H](NC(=O)OCc1ccccc1)C(=O)Nc1ccc2nc(N3CCNCC3)[nH]c(=O)c2c1	10	1.57
CC(C)COC(=O)N[C@@H](CN)C(=O)Nc1ccc2nc(N3CCNCC3)[nH]c(=O)c2c1	40	1.8
NC[C@H](NC(=O)OCc1ccccc1)C(=O)Nc1ccc2nc(N3CCNCC3)[nH]c(=O)c2c1	19	1.53
NCc1ccc(C(=O)Nc2ccc3nc(N4CCNCC4)[nH]c(=O)c3c2)cc1	1900	–
CCCCS(=O)(=O)N[C@@H](Cc1ccc(OCCCCC2CCNCC2)cc1)C(=O)O [TIROFIBAN]	30	–
NCCC(=O)Nc1ccc2nc(N3CCNCC3)nc(-c3ccccc3)c2c1	570	–
NCCCC(=O)Nc1ccc2nc(N3CCNCC3)nc(-c3ccccc3)c2c1	49	–
O=C(Nc1ccc2nc(N3CCNCC3)[nH]c(=O)c2c1)c1ccc(N2CCNCC2)cc1	1300	20
O=C(Nc1ccc2nc(N3CCNCC3)[nH]c(=O)c2c1)c1ccc(C2CCNCC2)cc1	570	–
NCCCCCC(=O)Nc1ccc2nc(N3CCNCC3)[nH]c(=O)c2c1	1300	–
CCC(=O)Nc1ccc2nc(N3CCNCC3)[nH]c(=O)c2c1	170	55
CCOC(=O)N[C@@H](CN)C(=O)Nc1ccc2nc(N3CCNCC3)[nH]c(=O)c2c1	60	–
NCCCCCC(=O)Nc1ccc2nc(N3CCNCC3)nc(-c3ccccc3)c2c1	58000	–
